As usually defined, the Ki is the equilibrium dissociation constant of an inhibitor or competing ligand from its target. A low value points to tighter binding. As a reminder, the IC50 is the concentration at which inhibition is half-maximal. Higher therefore signals weaker potency.

We go through twelve compounds from ChEMBL document CHEMBL1128794, “Rational design of irreversible, pseudo-C2-symmetric hiv-1 protease inhibitors” (Bioorg Med Chem Lett, 1995).

For assay [1], the target named is Human immunodeficiency virus type 1 protease (Human immunodeficiency virus 1) (UniProt Q72874). Briefly: Rate of irreversible inactivation of HIV 1 protease by the compound was determined.
Assay [2] has as its system H9. The experiment in a line: 50% Cytoxic value against HIV-1 in H-9 cell lines was evaluated. The assay is classed as functional, Homo sapiens.
Assay [3] concerns the target Human immunodeficiency virus type 1 protease (Human immunodeficiency virus 1, UniProt Q72874). Briefly: Compound was tested for the inhibition activity against HIV-1 protease.
In assay [4] the test system is SUP-T1. The experiment in a line: 50% Cytoxic value against HIV-1 in Sup T1 cell lines was evaluated. In kind it is functional, Homo sapiens.
For assay [5], the system named is H9. The experiment in a line: Tested for the inhibitory activity against HIV-1 in H-9 and Sup T1 cell lines assessed by syncytium formation and reverse transcriptase assay. In kind it is functional, cell-based. The note with it: Homo sapiens.
Assay [6] addresses Human immunodeficiency virus type 1 protease (Human immunodeficiency virus 1) (UniProt Q72874). The experiment in a line: Ratio of inactivation constant (Kina) and inhibition constant (Ki) was determined.
Assay [7] has as its system SUP-T1. The experiment in a line: Tested for the inhibitory activity against HIV-1 in Sup T1 cell lines assessed by syncytium formation and reverse transcriptase assay. The assay is classed as functional, cell-based. The note with it: Homo sapiens.
The subject of assay [8] is H9. The experiment in a line: Tested for the inhibitory activity against HIV-1 in H-9 cell lines assessed by syncytium formation and reverse transcriptase assay. In kind it is functional, cell-based. The note with it: Homo sapiens.

With `O=[N+]([O-])c1ccc(OCC2CO2)cc1` (centres undefined), the Kina in assay [1] stood at 0.004 min⁻¹.
For the compound `CC(C)[C@H](NC(=O)OCc1ccccc1)C(=O)NC[C@@H]1O[C@@H]1[C@H](Cc1ccccc1)NC(=O)[C@H](NC(=O)OCc1ccccc1)C(C)C`, the CT50 in assay [2] and in assay [4] was above 100 µM in each case. This compound also displayed a Ki in assay [3] of 0.1 nM. Besides, the IC50 in assay [5] and in assay [7] was 30 nM throughout. The K inact/Ki in assay [6] came out at 1.5e+08 M⁻¹ min⁻¹.
In turn, `CC(C)[C@H](NC(=O)OCc1ccncc1)C(=O)NC[C@@H]1O[C@@H]1[C@H](Cc1ccccc1)NC(=O)[C@H](NC(=O)OCc1ccncc1)C(C)C` gave a Ki in assay [3] of 300 nM. For the same compound, the K inact/Ki in assay [6] is 340000 M⁻¹ min⁻¹.
Take `CC(C)[C@H](NC(=O)N(C)Cc1ccccn1)C(=O)NC[C@@H]1O[C@@H]1[C@H](Cc1ccccc1)NC(=O)[C@H](NC(=O)N(C)Cc1ccccn1)C(C)C`: the affinity in assay [3] corresponds to a Ki of 16 nM. In addition, the K inact/Ki in assay [6] came out at 2.2e+07 M⁻¹ min⁻¹.
For `CC(C)[C@H](NC(=O)OCc1ccccc1)C(=O)NC(C)[C@@H]1O[C@@H]1[C@H](Cc1ccccc1)NC(=O)[C@H](NC(=O)OCc1ccccc1)C(C)C` (some centres undefined) the same measures were 4 nM and 4e+07 M⁻¹ min⁻¹.
On to `CC(C)(C)NC(=O)[C@@H]1C[C@@H]2CCCC[C@@H]2CN1C[C@@H](O)[C@H](Cc1ccccc1)NC(=O)[C@H](CC(N)=O)NC(=O)c1ccc2ccccc2n1` [SAQUINAVIR], for which the IC50 in assay [8] and in assay [7] was 20 nM each time.
`CC(C)[C@H](NC(=O)OCc1ccccc1)C(=O)N[C@@H](Cc1ccccc1)C1OC1[C@H](Cc1ccccc1)NC(=O)[C@@H](NC(=O)OCc1ccccc1)C(C)C` (some centres undefined) yielded a Ki in assay [3] of 75 nM.
Regarding `CC(C)[C@H](NC(=O)OCc1ccccc1)C(=O)N[C@@H](Cc1ccccc1)[C@H](O)[C@H](O)[C@H](Cc1ccccc1)NC(=O)[C@@H](NC(=O)OCc1ccccc1)C(C)C`, the Ki in assay [3] is below 1 nM.
On the same count and under the same terms, the figure for `CC(C)[C@H](NC(=O)N(C)Cc1ccccn1)C(=O)N[C@@H](Cc1ccccc1)[C@@H](O)[C@H](O)[C@H](Cc1ccccc1)NC(=O)[C@@H](NC(=O)N(C)Cc1ccccn1)C(C)C` is below 1 nM.
With `CC(C)[C@H](NC(=O)OCc1ccccn1)C(=O)NC[C@@H]1O[C@@H]1[C@H](Cc1ccccc1)NC(=O)[C@H](NC(=O)OCc1ccccn1)C(C)C`, in assay [3], affinity was put at a Ki of 11 nM. Further, the K inact/Ki in assay [6] is 2.3e+07 M⁻¹ min⁻¹.
`Cc1cn([C@H]2C[C@H](N=[N+]=[N-])[C@@H](CO)O2)c(=O)[nH]c1=O` [ZIDOVUDINE]: the IC50 in assay [8] and in assay [7] was 50 nM in each case.
`CC(C)[C@H](NC(=O)OCc1cccnc1)C(=O)NC[C@@H]1O[C@@H]1[C@H](Cc1ccccc1)NC(=O)[C@H](NC(=O)OCc1cccnc1)C(C)C` came in with a Ki in assay [3] of 70 nM. Besides, the K inact/Ki in assay [6] came out at 1.4e+06 M⁻¹ min⁻¹.
